# Measured values as given in patent US8067586B2, “Fused heteroaryl derivatives” (Astellas Pharma Inc., priority 2000, dated 2011).
# Target: bovine p110α (Bos taurus, UniProt P32871)
# Experiment: Inhibition of PI3K (p110α subtype)
# Type: biochemical
# Conditions: not given
# bovine p110α, sequence (P32871 whole entry): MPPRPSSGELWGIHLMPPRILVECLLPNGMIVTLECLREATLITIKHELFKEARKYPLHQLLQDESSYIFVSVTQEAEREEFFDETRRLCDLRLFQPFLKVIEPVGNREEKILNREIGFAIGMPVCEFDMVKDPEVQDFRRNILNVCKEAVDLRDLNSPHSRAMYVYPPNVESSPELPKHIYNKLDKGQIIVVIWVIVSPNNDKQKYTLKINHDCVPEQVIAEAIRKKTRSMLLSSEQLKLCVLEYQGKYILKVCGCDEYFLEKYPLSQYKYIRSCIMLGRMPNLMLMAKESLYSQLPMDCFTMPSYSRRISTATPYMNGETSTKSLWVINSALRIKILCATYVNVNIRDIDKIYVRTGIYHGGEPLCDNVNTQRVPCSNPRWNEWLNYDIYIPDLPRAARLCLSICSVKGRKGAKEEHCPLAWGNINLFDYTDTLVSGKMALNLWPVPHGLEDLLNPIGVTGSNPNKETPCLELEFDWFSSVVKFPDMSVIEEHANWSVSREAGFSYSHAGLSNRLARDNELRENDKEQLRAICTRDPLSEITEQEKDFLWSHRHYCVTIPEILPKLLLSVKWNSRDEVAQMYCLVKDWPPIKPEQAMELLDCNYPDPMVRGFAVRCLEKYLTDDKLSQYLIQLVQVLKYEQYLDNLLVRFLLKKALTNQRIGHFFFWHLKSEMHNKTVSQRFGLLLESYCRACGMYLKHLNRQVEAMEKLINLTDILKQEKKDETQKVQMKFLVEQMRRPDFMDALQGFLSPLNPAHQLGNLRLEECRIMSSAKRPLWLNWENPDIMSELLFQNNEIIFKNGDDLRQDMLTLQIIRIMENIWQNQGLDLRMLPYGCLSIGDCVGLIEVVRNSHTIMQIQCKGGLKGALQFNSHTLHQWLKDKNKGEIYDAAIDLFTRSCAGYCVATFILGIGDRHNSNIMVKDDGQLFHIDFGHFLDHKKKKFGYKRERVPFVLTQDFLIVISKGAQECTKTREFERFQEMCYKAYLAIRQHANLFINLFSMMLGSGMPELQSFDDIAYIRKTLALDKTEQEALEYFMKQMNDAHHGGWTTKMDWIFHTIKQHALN
row,SMILES,IC50 [nM]
1,"Nc1ccc(C(=O)Nc2cccc(-c3nc(N4CCOCC4)c4oc5ncccc5c4n3)c2)cn1 [Co 17, 6-amino-3′-(4-morpholinopyrido[3′,2′:4,5]furo[3,2-d]pyrimidin-2-yl)nicotinanilide]",< 1000

# Same assay, conditions: bovine p110α, 37° C. for 15 minutes; read-out: IC50, p110α subtype inhibition
row,SMILES,IC50 [nM]
1,O=C(Nc1cccc(-c2nc(N3CCOCC3)c3oc4ncccc4c3n2)c1)c1ccccn1 [Co 10],< 1000

# Test system: A375 cells
# Experiment: Melanoma cell growth inhibition (Alamar Blue)
# Type: cell-based
# Conditions: Homo sapiens, A-375, incubation for over 46 hours
# Experimental: A375 cells from a melanoma cell line were cultured in DMEM medium (GIBCO) supplemented with 10% fetal bovine serum. A375 cells at 10,000 cells/100 μl were added to a 96 well plate which contained 1 μl/well of the test compounds (final concentration of 0.001˜30 μM). After incubation for over 46 hours, Alamar Blue reagent was added to the medium (10 μl/well).
row,SMILES,IC50 [nM]
1,"Oc1cccc(-c2nc(N3CCOCC3)c3cnccc3n2)c1 [Co 164, 3-(4-morpholinopyrido[4,3-d]pyrimidin-2-yl)phenol]",330 to 4260
2,"Nc1ccc(-c2nc(N3CCOCC3)c3oc4ncccc4c3n2)cc1 [Co 33, 4-(4-morpholinopyrido[3′,2′:4,5]furo[3,2-d]pyrimidin-2-yl)aniline]",330 to 4260
3,"Oc1cccc(-c2nc(N3CCOCC3)c3ccncc3n2)c1 [Co 174, 3-(4-morpholinopyrido[3,4-d]pyrimidin-2-yl)phenol]",330 to 4260
4,"c1cc(OCCN2CCNCC2)cc(-c2nc(N3CCOCC3)c3oc4ncccc4c3n2)c1 [Co 69, 4-morpholino-2-[3-(2-piperazin-1-ylethoxy)phenyl]pyrido[3′,2′:4,5]furo[3,2-d]pyrimidine]",330 to 4260
5,"Oc1cccc(-c2nc(N3CCOCC3)c3ncccc3n2)c1 [Co 172, 3-(4-morpholinopyrido[3,2-d]pyrimidin-2-yl)phenol]",330 to 4260
6,"Oc1cccc(-c2nc(N3CCOCC3)c3nccnc3n2)c1 [Co 191, 3-(4-morpholinopteridin-2-yl)phenol]",330 to 4260
7,"COc1ccc2nc(-c3cccc(O)c3)nc(N3CCOCC3)c2c1 [Co 186, 3-(6-methoxy-4-morpholinoquinazolin-2-yl)phenol]",330 to 4260
8,"Oc1cccc(-c2nc(N3CCOCC3)c3oc4ncccc4c3n2)c1 [Co 50, 3-(4-morpholinopyrido[3′,2′:4,5]furo[3,2-d]pyrimidin-2-yl)phenol]",330 to 4260
9,"Oc1cccc(-c2nc(N3CCOCC3)c3sccc3n2)c1 [Co 190, 3-(4-morpholinothieno[3,2-d]pyrimidin-2-yl)phenol]",330 to 4260
